{"source": "ChEMBL document CHEMBL3351728", "about": "“3-alkoxy-pyrrolo[1,2-b]pyrazolines as selective androgen receptor modulators with ideal physicochemical properties for transdermal administration” (J Med Chem, 2014)", "key": {"Rattus norvegicus [1]": {"system": "Rattus norvegicus", "assay": "Androgenic activity in orchidectomized rat assessed as stimulation of prostate weight treated subcutaneously once daily for 14 days by Hershberger assay", "assay_type": "organism-based", "conditions": "Prostate gland, sc, 336 h"}, "Rattus norvegicus [2]": {"system": "Rattus norvegicus", "assay": "Anabolic activity in orchidectomized rat assessed as stimulation of bulbocavernosus/levator ani muscle weight treated subcutaneously once daily for 14 days by Hershberger assay", "assay_type": "functional", "conditions": "sc, 336 h"}, "[3]": {"target": "T1, Androgen receptor (Homo sapiens) (UniProt P10275)", "T1 sequence (whole entry)": "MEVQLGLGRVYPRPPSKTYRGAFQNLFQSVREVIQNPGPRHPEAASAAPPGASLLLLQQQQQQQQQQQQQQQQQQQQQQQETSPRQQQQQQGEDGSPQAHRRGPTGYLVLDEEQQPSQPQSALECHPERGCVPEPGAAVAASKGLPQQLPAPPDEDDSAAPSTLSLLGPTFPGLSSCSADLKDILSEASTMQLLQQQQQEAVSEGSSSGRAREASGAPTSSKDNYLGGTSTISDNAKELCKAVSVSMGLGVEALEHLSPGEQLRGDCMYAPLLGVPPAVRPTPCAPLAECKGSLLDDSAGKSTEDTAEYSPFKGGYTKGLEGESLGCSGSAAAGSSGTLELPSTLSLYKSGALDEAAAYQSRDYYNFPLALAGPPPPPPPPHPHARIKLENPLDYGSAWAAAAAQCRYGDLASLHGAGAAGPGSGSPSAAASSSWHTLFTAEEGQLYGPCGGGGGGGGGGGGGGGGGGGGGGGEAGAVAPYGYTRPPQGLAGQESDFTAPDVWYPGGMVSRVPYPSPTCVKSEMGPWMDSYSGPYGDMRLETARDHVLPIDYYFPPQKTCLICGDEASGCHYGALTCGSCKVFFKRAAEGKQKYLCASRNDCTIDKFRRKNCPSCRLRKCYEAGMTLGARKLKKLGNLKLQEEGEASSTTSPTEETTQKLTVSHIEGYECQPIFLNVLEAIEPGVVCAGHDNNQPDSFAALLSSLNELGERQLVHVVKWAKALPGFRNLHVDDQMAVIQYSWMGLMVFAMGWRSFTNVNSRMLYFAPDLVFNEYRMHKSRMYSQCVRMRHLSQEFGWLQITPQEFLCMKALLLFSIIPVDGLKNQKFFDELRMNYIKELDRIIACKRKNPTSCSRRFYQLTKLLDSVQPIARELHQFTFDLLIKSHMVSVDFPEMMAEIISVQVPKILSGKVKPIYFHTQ", "assay": "Agonist activity at human androgen receptor expressed in mouse C2C12 cells by androgen-specific response element-driven luciferase reporter gene assay relative to DHT", "assay_type": "cell-based"}, "Androgen receptor [4]": {"target": "T2, Androgen receptor (Homo sapiens, UniProt P10275)", "T2 sequence (P10275 whole entry)": "T1 sequence (whole entry)", "conditions": "c2c12"}, "Androgen receptor [5]": {"target": "T2, Androgen receptor"}, "[6]": {"assay": "Thermodynamic solubility of the compound at pH 7.4", "assay_type": "physicochemical", "conditions": "buffer, read-out: Therm_solubility"}, "Zone of skin": {"system": "Zone of skin", "assay": "Skin permeability in human cadaver skin in Franz diffusion cell system", "assay_type": "ADME"}, "[7]": {"assay": "Skin drug retention by silicone and isopropyl myristate (70:30) containing artificial membranes based skin PAMPA method"}, "[8]": {"assay": "Skin permeability by silicone and isopropyl myristate (70:30) containing artificial membranes based skin PAMPA method", "assay_type": "ADME"}, "[9]": {"assay": "Lipophilicity, logP of the compound", "assay_type": "physicochemical", "conditions": "octanol/water"}}, "note": "Calls of active or inactive are those of the source. No cut-off for these calls is given here.", "data": [{"compound": "CCC(=O)O[C@H]1CC[C@H]2[C@@H]3CCC4=CC(=O)CC[C@]4(C)[C@H]3CC[C@]12C", "note": "[TESTOSTERONE PROPIONATE]", "values": [{"measurement": "ED50", "setting": "Rattus norvegicus [1]", "result": 0.31, "unit": "mg/kg"}, {"measurement": "ED50", "setting": "Rattus norvegicus [2]", "result": 0.29, "unit": "mg/kg"}]}, {"compound": "CO[C@@H]1C(c2ccc(C#N)c(Cl)c2C)=NN2C[C@@H](O)C[C@@H]12", "values": [{"measurement": "Emax", "setting": "[3]", "result": "inactive"}, {"measurement": "EC50", "setting": "Androgen receptor [4]", "result": "Not Active"}]}, {"compound": "CO[C@@H]1C(c2ccc(C#N)c(Cl)c2C)=NN2CC[C@H](F)[C@@H]12", "values": [{"measurement": "Emax", "setting": "[3]", "result": 93.5, "unit": "%"}, {"measurement": "EC50", "setting": "Androgen receptor [5]", "result": 1.5, "unit": "nM"}]}, {"compound": "CCO[C@@H]1C(c2ccc(C#N)c(Cl)c2C)=NN2CC[C@H](O)[C@@H]12", "values": [{"measurement": "Emax", "setting": "[3]", "result": 98.3, "unit": "%"}, {"measurement": "solubility thermodynamic", "setting": "[6]", "result": 250, "unit": "µg/mL"}, {"measurement": "Jss", "setting": "Zone of skin", "result": 0.9, "unit": "ug/cm2.hr"}, {"measurement": "Drug uptake", "setting": "[7]", "result": "inactive"}, {"measurement": "EC50", "setting": "Androgen receptor [5]", "result": 1, "unit": "nM"}, {"measurement": "permeability", "setting": "[8]", "result": "permeable"}, {"measurement": "logP", "setting": "[9]", "result": 2.4}]}, {"compound": "Cc1c(C2=NN3CC[C@H](O)[C@H]3[C@@H]2O)ccc(C#N)c1Cl", "values": [{"measurement": "Emax", "setting": "[3]", "result": 55, "unit": "%"}, {"measurement": "EC50", "setting": "Androgen receptor [5]", "result": 978, "unit": "nM"}]}, {"compound": "CO[C@@H]1C(c2ccc(C#N)c(Cl)c2C)=NN2C[C@@H](F)C[C@@H]12", "values": [{"measurement": "Emax", "setting": "[3]", "result": 86, "unit": "%"}, {"measurement": "EC50", "setting": "Androgen receptor [5]", "result": 1.4, "unit": "nM"}]}, {"compound": "CO[C@@H]1C(c2ccc(C#N)c(Cl)c2C)=NN2CC[C@@H](F)[C@@H]12", "values": [{"measurement": "Emax", "setting": "[3]", "result": 98, "unit": "%"}, {"measurement": "solubility thermodynamic", "setting": "[6]", "result": 10, "unit": "µg/mL"}, {"measurement": "Jss", "setting": "Zone of skin", "result": 1.2, "unit": "ug/cm2.hr"}, {"measurement": "Drug uptake", "setting": "[7]", "result": "inactive"}, {"measurement": "EC50", "setting": "Androgen receptor [5]", "result": 0.16, "unit": "nM"}, {"measurement": "permeability", "setting": "[8]", "result": "permeable"}, {"measurement": "logP", "setting": "[9]", "result": 2.7}]}, {"compound": "Cc1c(C2=NN3CC[C@H](O)[C@H]3[C@@H]2OC(C)C)ccc(C#N)c1Cl", "values": [{"measurement": "Emax", "setting": "[3]", "result": 102, "unit": "%"}, {"measurement": "EC50", "setting": "Androgen receptor [5]", "result": 4.5, "unit": "nM"}]}]}
